We go through 1 compound from patent publication EP0542497A1, “Heterocyclic compounds” (THE WELLCOME FOUNDATION LIMITED, priority 1991, dated 1993).

The test concerns Mycobacterium tuberculosis. As to the kind of experiment: In vitro activity vs Mycobacterium tuberculosis, proportion method. In kind it is cell-based. Particulars: ten(10) clinical isolates of Myco. tuberculosis (including several multiply-resistant strains), read-out: average MIC.

For the compound `CCC(CC)n1c(C)cc2c3c(N)nc(N)nc3ccc21` [Compound 2, 1,3-Diamino-7-(1-ethylpropyl)-8-methyl-7H-pyrrolo(3,2-f)quinazoline], the M I C was determined as 3.2 µg/mL.
